# Test results taken from patent US6303626A, “Pharmaceutical formulations in dry form for the oral administration of a cyclic quaternary ammonium compound” (Sanofi-Synthelabo, priority 1997, dated 2001).
# Where two headings read alike, the source gives them in different places.
# Assays:
# Caco-2 cells = type: in vitro ADME; details: polysorbate 80 added to a solution of compound A in the cell culture medium
# Description: This line is conventionally used for evaluating the ability of compounds to permeate the epithelium (Crit. Rev. Ther. Drug Carrier System. 1991, 8 (4), 105-330).
# 2. Evaluation of the Intestinal Transepithelial Passage of Compound A
# Caco-2 cells are inoculated onto microporous polycarbonate filters covered with collagen. The cellular monolayer formed on the filter then makes it possible to separate an apical compartment (imitating the intestinal lumen) from a basal compartment (imitating the blood circulation).
# The composition containing the compound to be studied is then placed on the apical side and the passage of this compound, dispersed or solubilized in Hank's medium, through this cellular barrier is evaluated by measuring the kinetics of its appearance on the basal side. This aqueous medium, of pH 6.5, has the following composition: NaCl=8.0 g/l; KCl=0.4 g/l; CaCl2 =0.19 g/l; MgCl2 =0.1 g/l; MgSO4 =0.1 g/l; Na2 HPO4 =0.09 g/l; KH2 PO4 =0.06 g/l; NaHCO3 =0.35 g/l; glucose=1 g/l; phenol red=0.01 g/l. […]
# Various non-ionic surfactants or agents said to improve absorption, such as a C8 -C10 fatty acid or one of its derivatives, were added to the formulation described above, placed in Hank's medium, and the relative rate of intestinal transepithelial passage of compound A in these formulations was measured.
# [1] = Solubility of compound A in water at the saturation point, 24 h, room temperature, UV spectrometry; type: physicochemical; details: for solubility at 24 h: water, room temperature, read-out: Concentration of compound A (solubility in water at saturation)
# Description: 1. Solubility of Compound A
# in vivo = details: rat, 0.6% aqueous solution of compound A in methyl cellulose, read-out: Estimated absorption
# Description: In this model, the permeability to compound A dissolved in dimethyl sulfoxide (DMSO) is 3.4.10^-7 cm/s. Furthermore, studies performed on the rat with a 0.6% aqueous solution of compound A in methyl cellulose have shown that its estimated absorption is less than 1%.
# [2] = Solubility in different media / solvents; type: physicochemical; details: dmso, organic solvent or mixture; read-out: Solubility in dimethyl sulfoxide (DMSO)
compound,measurement,setting,value
"CC(C)Oc1cccc(CC(=O)N2CCC[C@](CC[N+]34CCC(c5ccccc5)(CC3)CC4)(c3ccc(Cl)c(Cl)c3)C2)c1 [compound A, (S)-1-{2-[3-(3,4-dichlorophenyl)-1-(3-iso-propoxyphenylacetyl)piperidin-3-yl]ethyl}-4-phenyl-1-azoniabicyclo[2.2.2]octane]",Effect of addition of polysorbate 80 on transepithelial passage,Caco-2 cells,substantially improves the transepithelial passage
same,"Solubility in water, dependence on pH",[1]; pH 1 to 9,low and not dependent on the pH
same,solubility at 24 h,[1]; pH 1,310 µg/mL
same,solubility at 24 h,[1]; pH 3,310 µg/mL
same,solubility at 24 h,[1]; pH 5,310 µg/mL
same,solubility at 24 h,[1]; pH 7,290 µg/mL
same,solubility at 24 h,[1]; pH 9,310 µg/mL
same,Fa,in vivo,< 1%
same,solubility,[2],168000 µg/mL
